Reference: patent publication US20120264603A1, “ATTACHMENT AND RETENTION FORMULATIONS FOR BIOLOGICALLY ACTIVE ORGANIC COMPOUNDS” (priority 2010, published 2012)

Assay: Water solubility of sulfentrazone as a function of pH
Type: physicochemical

Cc1nn(-c2cc(NS(C)(=O)=O)c(Cl)cc2Cl)c(=O)n1C(F)F [sulfentrazone]
solubility in water (at 7.5 pH): soluble in water
solubility in water (pH ~5): sparingly soluble in water
